According to patent US10633348B2, “Methods to treat lymphoplasmacytic lymphoma” (Dana-Farber Cancer Institute, Inc., priority 2013, dated 2020):
Where two headings read alike, the source gives them in different places.

How the values were obtained:
Assay type in all cases: cell-based
SLK = system: SLK
GCN2 = system: GCN2
MAST1, MAST2 = experiment: KiNativ kinase profiling in A375 cells; settings: Lys2, SEQ ID NO 96, 1.0 μM
MAP2K1 = system: MAP2K1
MAP2K7 = system: MAP2K7
SMG1 = system: SMG1
CK1g2 = system: CK1g2
TAO1, TAO3 = experiment: KiNativ kinase profiling in A375 cells; settings: Lys2, SEQ ID NO 182, 1.0 μM
SRPK1 = system: SRPK1
NEK8 = system: NEK8
BTK = system: BTK
RAF1 = system: RAF1
FGR = system: FGR
TAK1 = system: TAK1
FER = system: FER
HPK1 = system: HPK1
CAMK2D = system: CAMK2D
MST4 = system: MST4
PHKG2 = system: PHKG2
MELK = system: MELK
PCTAIRE1 = system: PCTAIRE1
LRRK2 = system: LRRK2
MAP3K5 = system: MAP3K5
ACK = system: ACK
MST1 = system: MST1
RSK1 domain1 = system: RSK1 domain1
FRAP = system: FRAP
DNAPK = system: DNAPK
KHS1 = system: KHS1
IRAK4 = system: IRAK4
NEK2 = system: NEK2
CDK5 = system: CDK5
NDR1 = system: NDR1
IRAKI = system: IRAKI
KSR1 = system: KSR1
CAMKK2 = system: CAMKK2
LATS2 = system: LATS2
EPHB2 = system: EPHB2
BARK1 = system: BARK1
NEK7 = system: NEK7
MARK3 = system: MARK3
OSR1 = system: OSR1
MARK3, MARK4 = experiment: KiNativ kinase profiling in A375 cells; settings: Lys1, SEQ ID NO 94, 1.0 μM
SRC = system: SRC
IKKe = system: IKKe
p38b = system: p38b
RSK1 domain2 = system: RSK1 domain2
Wnk1, Wnk2 = experiment: KiNativ kinase profiling in A375 cells; settings: ATP Loop, SEQ ID NO 193, 1.0 μM
MSK2 domain1 = system: MSK2 domain1
YANK3 = system: YANK3
BRAF = system: BRAF
MARK2, MARK3 = experiment: KiNativ kinase profiling in A375 cells; settings: Lys2, SEQ ID NO 92, 1.0 μM

CCN1CCN(Cc2ccc(NC(=O)c3ccc(C)c(Oc4cc(N)ncn4)c3)cc2C(F)(F)F)CC1 [(A-4), 3-((6-aminopyrimidin-4-yl)oxy)-N-(4-((4-ethylpiperazin-1-yl)methyl)-3-(trifluoromethyl)phenyl)-4-methylbenzamide]
inhibition of kinase labeling (SLK): −14.3%
inhibition of kinase labeling (GCN2): 20.8%
inhibition of kinase labeling (MAST1, MAST2): 35.6%
inhibition of kinase labeling (MAP2K1): 11.4%
inhibition of kinase labeling (MAP2K7): −38.2%
inhibition of kinase labeling (SMG1): −4.0%
inhibition of kinase labeling (CK1g2): −9.1%
inhibition of kinase labeling (TAO1, TAO3): 76.5%
inhibition of kinase labeling (SRPK1): −34.1%
inhibition of kinase labeling (NEK8): −11.4%
inhibition of kinase labeling (BTK): −18.8%
inhibition of kinase labeling (RAF1): 36.6%
inhibition of kinase labeling (FGR): 31.9%
inhibition of kinase labeling (TAK1): 32.0%
inhibition of kinase labeling (FER): 91.4%
inhibition of kinase labeling (HPK1): 68.1%
inhibition of kinase labeling (CAMK2D): −8.1%
inhibition of kinase labeling (MST4): 6.2%
inhibition of kinase labeling (PHKG2): 15.2%
inhibition of kinase labeling (MELK): −19.6%
inhibition of kinase labeling (PCTAIRE1): −3.5%
inhibition of kinase labeling (LRRK2): −15.9%
inhibition of kinase labeling (MAP3K5): −30.4%
inhibition of kinase labeling (ACK): 4.9%
inhibition of kinase labeling (MST1): −4.7%
inhibition of kinase labeling (RSK1 domain1): −20.9%
inhibition of kinase labeling (FRAP): −7.5%
inhibition of kinase labeling (DNAPK; ATP site peptide SEQ ID NO 37): −61.5%
inhibition of kinase labeling (DNAPK; ATP site peptide SEQ ID NO 38): −64.6%
inhibition of kinase labeling (KHS1): 15.8%
inhibition of kinase labeling (IRAK4): 1.9%
inhibition of kinase labeling (NEK2): −22.7%
inhibition of kinase labeling (CDK5): −27.3%
inhibition of kinase labeling (NDR1): 9.3%
inhibition of kinase labeling (IRAKI): −3.5%
inhibition of kinase labeling (KSR1): −22.0%
inhibition of kinase labeling (CAMKK2): 6.2%
inhibition of kinase labeling (LATS2): −1.9%
inhibition of kinase labeling (EPHB2): −12.8%
inhibition of kinase labeling (BARK1): −13.4%
inhibition of kinase labeling (NEK7): −7.2%
inhibition of kinase labeling (MARK3): −26.1%
inhibition of kinase labeling (OSR1): −11.1%
inhibition of kinase labeling (MARK3, MARK4): −16.2%
inhibition of kinase labeling (SRC): 76.1%
inhibition of kinase labeling (IKKe): −9.9%
inhibition of kinase labeling (p38b): 51.4%
inhibition of kinase labeling (RSK1 domain2): −16.3%
inhibition of kinase labeling (Wnk1, Wnk2): 24.2%
inhibition of kinase labeling (MSK2 domain1): −64.9%
inhibition of kinase labeling (YANK3): 27.7%
inhibition of kinase labeling (BRAF): 18.9%
inhibition of kinase labeling (MARK2, MARK3): 4.6%
